Test results: patent US10058487B2, “Polymerizable dental material” (Muhlbauer Technology GmbH, priority 2014, dated 2018)
≈ marks a conversion by molar mass, not a printed value. Read-outs that look alike come from different tables or passages of the source.

Experiment: Determination of the water solubility by UV/visible spectroscopy
Assay type: physicochemical
Settings: saturated solution in deionized water, 23±2° C.
Method: The water solubility was determined in deionized water by UV/visible spectroscopy. The spectra were recorded with a UV/visible spectrometer (Evolution 600, Thermo Scientific) between 200-900 nm. The measurement was carried out in quartz cells (path length 10 mm). The pure solvent deionized water was used for the background spectrum. The background spectrum was subtracted from the spectra of the coinitiators.
Dilute solutions of the different coinitiators with known concentrations were prepared in deionized water. The absorption of the different coinitiators was measured in the absorption maximum (between 290-310 nm) and a linear relationship between the known concentrations and the measured absorptions was determined.
Saturated aqueous solutions of the coinitiators were diluted up to the point that the measured absorption falls in the linear region found above. The concentrations of the coinitiators in the saturated aqueous solutions are determined via the Lambert-Beer law.

[1] = 23 °C, thermodynamic from solid, read-out: Solubility

Compound	solubility [1] [µg/mL]	solubility [µg/mL]
CCCNC(=O)c1ccc(N(C)C)cc1 [4-Dimethylamino-N-propylbenzamide]	680 (≈ 3300 µM)	–
CN(C)c1ccc(C#N)cc1 [4-Dimethylaminobenzonitrile]	278 (≈ 1900 µM)	–
COCCNC(=O)c1ccc(N(C)C)cc1 [4-Dimethylamino-N-(2-methoxyethyl)benzamide]	2670 (≈ 12000 µM)	–
CCCCOCCOC(=O)c1ccc(N(C)C)cc1 [2-(n-Butoxy)ethyl 4-dimethylaminobenzoate]	35 (≈ 132 µM)	–
CN(C)c1ccc(C(N)=O)cc1 [4-Dimethylaminobenzamide]	427 (≈ 2600 µM)	–

Next, values leading:

solubility [1] [µg/mL]	solubility [µg/mL]	Compound
36 (≈ 186 µM)	–	CCOC(=O)c1ccc(N(C)C)cc1 [Ethyl 4-dimethylaminobenzoate]
26 (≈ 93.7 µM)	–	CCCCC(CC)COC(=O)c1ccc(N(C)C)cc1 (centres unmarked) [EHA, 2-Ethylhexyl 4-dimethylaminobenzoate]
–	> 766000	Polyethylene glycol monomethyl ether 4-dimethylaminobenzoate [PEGA]
